Laboratory results taken from ChEMBL document CHEMBL1141438, “Securinega alkaloids from the wood of Securinega suffruticosa var. amamiensis” (J Nat Prod, 2007).
In brackets after ≈: the same amount, converted by molar mass.

Columns and labels:
[1] = tested on: KB; test: Cytotoxicity against human KB cells; format: functional, cell-based
[2] = tested on: L1210; test: Cytotoxicity against mouse L1210 cells; format: functional, cell-based

| Structure (SMILES) | IC50 [1] | IC50 [2] |
| --- | --- | --- |
| CO[C@H]1CC2=CC(=O)O[C@@]23C[C@@H]1N1CCCC[C@@H]13 [SECURINEGA AMAMINE C] | > 5 µg/mL | > 5 µg/mL |
| CO[C@H]1CCN2O[C@@H]3C=CC4=CC(=O)O[C@]4(C3)[C@@H]2C1 [SECURINEGA AMAMINE D] | > 5 µg/mL | > 5 µg/mL |
| CO[C@H]1CCN2[C@@H](C1)[C@]13C[C@H]2[C@@H](OC)CC1=CC(=O)O3 [SECURINEGA AMAMINE B] | > 5 µg/mL | > 5 µg/mL |
| O=C1C=C2C=C[C@@H]3C[C@@]2(O1)[C@@H]1CCCCN1O3 [PHYLLANTIDINE] | > 5 µg/mL | > 5 µg/mL |
| O=C1C=C2C=C[C@@H]3C[C@@]2(O1)[C@H]1CCCCN31 [SECURININE] | 2.2 µg/mL (≈ 10.1 µM) | 1.9 µg/mL (≈ 8.74 µM) |
| O=C1C=C2C=C[C@@H]3C[C@@]2(O1)[C@H]1C[C@@H](O)CCN31 | 3 µg/mL (≈ 12.9 µM) | 3.7 µg/mL (≈ 15.9 µM) |
